Results published in patent US7745465B2, “Method of enhancing cellular production of molecular chaperone, hydroxylamine derivatives useful for enhancing the chaperone production and the preparation thereof” (CytRx Corporation, priority 1995, dated 2010).

Key:
hsp72 gene = assay: Northern blot of hsp72 mRNA in rat heart ventricles; format: in vivo
Protocol: Experiments were carried out in SPRD male rats. Animals were anaesthetized with Nembutal in a dose of 60 mg/kg/i.p. Body temperature of the rats were maintained with an infra lamp placed over the abdomen and the rectal temperature was measured. After a 25-40 minute period the temperature of the rats increased to 42.0-42.2° C. and this temperature was maintained for 15 minutes. After a recovery period (2 hrs), tissue samples were collected from the left and right ventricles.
Experiments were carried out in SPRD male rats. The animals were anaesthetized with Nembutal in a dose of 60 mg/kg/i.p. After opening the chest and pericardium, the LAD coronary artery was occluded for 5 minutes and then the incidence and duration of ventricular tachycardia and fibrillation in the reperfusion period (10 minutes) were investigated. Tissue samples were collected from the left and right ventricles.
Total RNA was extracted using RN Agents kit (Promega) according to the manufacturer's instructions (Protocols and Applications Guide, 2nd edition, 1991, Promega Corporation). […]
Prehybridizations were carried out at 65° C. in H-buffer (0.25M Na2HPO4, pH 7.2, 7% SDS) for 15 minutes. […] The membrane was washed with 20 mM Na2HPO4, pH 7.2, 5% SDS (65 C; 2×15 min.) and evaluated by autoradiography. […]

GRP-94 = assay: Level of GRP-94 in STZ diabetic rat liver (Western blot); format: in vivo; conditions: for relative amount of GRP-94: rats diabetic for 4 weeks
HSPs = assay: Western blot overview of all HSPs in heat shocked H9c2 heart cells; format: cell-based, rat; conditions: added 16 hours before the heat treatment
Protocol: Experiments set forth in this section were conducted to determine whether N-[2-hydroxy-3-(1-piperidinyl)propoxy]-3-pyridinecarboximidoyl chloride maleate acts to increase the expression of molecular chaperon by a cell. The accumulation of different heat shock proteins subsequent to a period of exposure to heat shock alone, and to heat shock in combination with N-[2-hydroxy-3-(1-piperidinyl)propoxy]-3-pyridinecarboximidoyl chloride maleate administration, was examined by adding 10^−5 M of N-[2-hydroxy-3-(1-piperidinyl)propoxy]-3-pyridinecarboximidoyl chloride maleate before, during, or immediately after hyperthermic treatment of heart myogenic cells (H9c2 cells).
The embryonic rat heart-derived cell line H9c2 was obtained from European Collection of Animal cell Cultures (ECACC) (88092904). The cells were maintained at 37° C. in Dulbecco's modified Eagle's medium (DMEM) supplemented with 10% fetal calf serum (GIBCO) in JOUAN C02 thermostat (5% CO2).
Heat shock was performed at 43° C. in CO2 thermostat for the given time intervals (20, 40, 60, 90 and 120 min.). Cells were then taken back to 37° C. for 6 hours and proteins were extracted for SDS-PAGE. […]
Protein concentration was determined from 5:1 samples by the Bradford assay (M. M. Braford, Anal. Biochem., 72: 248-254 (1976)) in three parallel. […]

## O=C(O)/C=C\C(=O)O.OC(CON=C(Cl)c1cccnc1)CN1CCCCC1 (stereo not shown) [N-[2-hydroxy-3-(1-piperidinyl)-propoxy]3-pyridinecarboximidoyl chloride maleate]
hsp72 gene; 100 mg/kg p.o., ischemia
  expression of hsp72 gene in heart muscle preparations: highly increased expression of hsp72 gene
hsp72 gene; in the absence of stress, compound alone
  activation of the hsp72 gene: unable to activate the hsp72 gene
GRP-94; 1 week and 2-weeks diabetic animals, 20 mg/kg/day p.o.
  decrease of relative GRP-94 content: completely be reverted
GRP-94; in combination with insulin, 1 week and 2-weeks samples
  levels of GRP-94 compared to the control state: almost doubled
GRP-94; compound alone
  relative amount of GRP-94: no significant alteration
GRP-94; insulinized and treated with the compound
  relative amount of GRP-94: recovery of GRP-94 to the control level
HSPs
  level of all HSPs increased further as compared to that observed upon heat stress: at least twofold
